Experimental findings from patent publication US20240400547A1, “2,6-PIPERIDINEDIONE COMPOUND AND APPLICATION THEREOF” (MEDSHINE DISCOVERY INC., priority 2021, published 2024) are described below.

Where a name gives a salt, the structure may show the parent alone.

One assay relates to SU-DHL-2. Put plainly: Antiproliferative effect in lymphoma cell line SU-DHL-2 (CellTiter-Glo). Type of assay: cell-based, human. As to conditions: SU-DHL-2, 4 days. The procedure:
Experimental purpose: The experiment aims to evaluate the inhibitory effects of the test compounds on cell proliferation in the lymphoma cell line SU-DHL-2.
The tumor cell lines were cultured in a 37° C., 5% CO2 incubator under the above culture conditions. Regular passage, and cells in logarithmic growth phase were taken for plating.
• (1) Cells were stained with trypan blue and viable cells were counted. • (2) The cell concentration was adjusted to an appropriate concentration.
• (3) 50 μL of cell suspension per well was added to the culture plate as shown in the figure above. • (4) The culture plate was cultured overnight in a 37° C., 5% CO2 incubator with 100% relative humidity.
Compounds were added using the Echo655 instrument. The volume of compound added was 50 nL, with a final DMSO concentration of 0.1%. The culture plate was centrifuged at 1000 rpm for 1 minute, then incubated for 4 days in an incubator at 37° C., 5% CO2, and with 100% relative humidity.
The following steps were performed according to the instructions of Promega CellTiter-Glo luminescent cell viability assay kit (Promega-G7573). • (1) CellTiter-Glo buffer was melted and brought to room temperature. • (2) CellTiter-Glo substrate was brought to room temperature. • (3) CellTiter-Glo working solution was prepared by adding CellTiter-Glo buffer to a vial of CellTiter-Glo substrate to dissolve the substrate; • (4) The mixture was slowly vortexed and shaken to be fully dissolved. • (5) The cell culture plate was taken out and left for 30 minutes to equilibrate to room temperature. • (6) 25 μL of CellTiter-Glo working solution was added per well (equal to half the volume of cell culture medium per well). The cell plate was wrapped in aluminum foil to be protected from light. • (7) The culture plate was shaken on an orbital shaker for 2 minutes to induce cell lysis. • (8) The culture plate was left at room temperature for 10 minutes to stabilize the luminescent signal. • (9) The luminescent signal was detected on a 2104 EnVision plate reader.
The inhibition rate (IR) of the test compound was calculated using the following formula: IR (%)=(1−(RLU compound/RLU blank control)/(RLU vehicle control−RLU blank control)×100%. The inhibition rates of compounds at different concentrations were calculated in Excel, and then GraphPad Prism software was used to plot inhibition curves and calculate relevant parameters, including minimum inhibition rate, maximum inhibition rate, and IC50.

Another assay concerns the target T1, IRAK4 (Homo sapiens, UniProt Q9NWZ3).
T1 construct: expressed in transfected cells; host or cells: K562 IRAK4-HiBiT cells
T1 sequence (Q9NWZ3 1-460): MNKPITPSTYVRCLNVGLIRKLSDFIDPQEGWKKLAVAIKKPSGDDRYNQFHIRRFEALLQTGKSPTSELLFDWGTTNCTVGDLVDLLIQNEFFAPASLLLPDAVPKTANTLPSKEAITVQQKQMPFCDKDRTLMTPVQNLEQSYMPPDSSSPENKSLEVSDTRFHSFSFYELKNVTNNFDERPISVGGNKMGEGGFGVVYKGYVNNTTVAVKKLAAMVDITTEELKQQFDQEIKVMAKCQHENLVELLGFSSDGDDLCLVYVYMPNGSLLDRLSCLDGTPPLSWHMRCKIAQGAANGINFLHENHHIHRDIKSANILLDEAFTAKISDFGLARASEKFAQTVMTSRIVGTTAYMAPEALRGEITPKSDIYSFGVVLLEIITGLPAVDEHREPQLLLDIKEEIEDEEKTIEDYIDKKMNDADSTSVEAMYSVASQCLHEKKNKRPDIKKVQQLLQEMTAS
Put plainly: Target protein degradation in K562 IRAK4-HiBiT cells (Nano-Glo HiBiT). As to conditions: 16 to 18 hours; for Dmax: read-out: Maximum degradation rate. Type of assay: cell-based. The procedure:
Experimental objective: The experiment aims to evaluate the degradation effect of the test compounds on the target protein IRAK4 in K562 IRAK4-HiBiT cells.
• Cells: K562 IRAK4-HiBiT cells • Culture medium: RPMI 1640+10% fetal bovine serum+2 mM glutamine+1 mM sodium pyruvate+penicillin/streptomycin. • Positive control: 1000 nM; negative control: 0.1% DMSO.
• (1). The powder of the compound to be tested was dissolved in DMSO to a storage concentration of 10 mM. A total of 9 μL of the 10 mM of the compound to be tested was manually pipetted into the 1st and 13th columns of the LDV plate using a pipettor; • (2). A volume of 6 μL of DMSO was added to columns 2-12 and 14-24 using a Multidrop Combi; • (3). A 3-fold dilution of the test compounds (3 μL+6 μL) was performed using Bravo, for columns 1-11 and 13-23; • (4). According to the plate layout, 25 nL of compound solution (columns 1-24 of the LDV plate) was transferred to the experimental plate using Echo; • (5) 25 nL of the 1 mM positive control solution was transferred to the assay plate as a 100% degradation control (i.e. LC, HPE), and 25 nL of DMSO was transferred to the assay plate as a 0% control (i.e. HC, ZPE).
• (1) The culture medium was discarded, and the cells were washed once with DPBS, digested with trypsin, counted, and prepared into a cell suspension of […]. • (2) Using the MultiDrop Combi at a medium speed, 25 μL/well of the cell suspension was added to the experimental plate containing the test compounds; • (3) The experimental plate containing cells was returned to the incubator and cultured for 16 to 18 hours at 37° C. and 5% CO2.
• (1). Using the MultiDrop Combi at a high speed, 25 μL/well of the assay reagent (NanoGlo lytic solution+substrate+LgBit protein) was added to the assay plate, followed by shaking for 10 minutes; • (2) The plate was centrifuged at 2000 rpm for 1 minute to remove any bubbles; • (3) Readings were obtained by using an Envision, US Luminescence reader.
To calculate the degradation rate (DR) of the test compounds, the following formula is used: IR (%)=(RLU vehicle control−RLU compound)/(RLU vehicle control−RLU positive control)×100%. The solvent control refers to the blank control. The degradation rates of compounds at different concentrations were calculated in Excel, and then XLFit software was used to plot inhibition curves and calculate relevant parameters, including minimum degradation rate, maximum degradation rate, and DC50.

The target of the next assay is T2, IKZF1 (Homo sapiens, UniProt Q13422+Q96SW2).
T2 construct: host or cells: MM.1S cells
T2 sequence (Q13422 whole entry): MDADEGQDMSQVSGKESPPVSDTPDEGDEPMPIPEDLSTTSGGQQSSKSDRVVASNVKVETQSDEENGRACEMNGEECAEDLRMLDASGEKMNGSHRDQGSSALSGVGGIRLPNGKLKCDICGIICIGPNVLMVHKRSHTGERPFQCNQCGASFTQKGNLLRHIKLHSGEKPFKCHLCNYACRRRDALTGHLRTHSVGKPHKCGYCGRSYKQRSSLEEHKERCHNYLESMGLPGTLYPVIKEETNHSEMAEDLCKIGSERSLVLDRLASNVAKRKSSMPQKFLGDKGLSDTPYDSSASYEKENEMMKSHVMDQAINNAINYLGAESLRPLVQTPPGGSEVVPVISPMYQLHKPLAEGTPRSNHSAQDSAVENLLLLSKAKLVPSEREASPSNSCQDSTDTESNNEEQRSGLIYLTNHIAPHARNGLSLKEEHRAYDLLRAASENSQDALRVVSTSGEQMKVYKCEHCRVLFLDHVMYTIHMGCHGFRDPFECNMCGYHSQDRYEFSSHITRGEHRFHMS
T2 sequence (Q96SW2 whole entry): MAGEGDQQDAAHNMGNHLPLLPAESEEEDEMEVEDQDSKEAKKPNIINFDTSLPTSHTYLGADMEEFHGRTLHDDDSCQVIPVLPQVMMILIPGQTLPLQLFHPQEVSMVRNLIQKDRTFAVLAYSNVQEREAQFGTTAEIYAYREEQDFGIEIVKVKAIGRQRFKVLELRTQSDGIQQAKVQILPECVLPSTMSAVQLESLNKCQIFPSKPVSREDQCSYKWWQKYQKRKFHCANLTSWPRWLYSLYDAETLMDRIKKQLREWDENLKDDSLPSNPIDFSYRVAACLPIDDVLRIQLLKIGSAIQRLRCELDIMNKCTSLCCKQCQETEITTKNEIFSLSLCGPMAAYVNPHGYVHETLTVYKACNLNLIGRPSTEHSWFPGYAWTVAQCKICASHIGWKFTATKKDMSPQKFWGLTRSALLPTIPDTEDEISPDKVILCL
T2 sequence (Q16531 whole entry partner): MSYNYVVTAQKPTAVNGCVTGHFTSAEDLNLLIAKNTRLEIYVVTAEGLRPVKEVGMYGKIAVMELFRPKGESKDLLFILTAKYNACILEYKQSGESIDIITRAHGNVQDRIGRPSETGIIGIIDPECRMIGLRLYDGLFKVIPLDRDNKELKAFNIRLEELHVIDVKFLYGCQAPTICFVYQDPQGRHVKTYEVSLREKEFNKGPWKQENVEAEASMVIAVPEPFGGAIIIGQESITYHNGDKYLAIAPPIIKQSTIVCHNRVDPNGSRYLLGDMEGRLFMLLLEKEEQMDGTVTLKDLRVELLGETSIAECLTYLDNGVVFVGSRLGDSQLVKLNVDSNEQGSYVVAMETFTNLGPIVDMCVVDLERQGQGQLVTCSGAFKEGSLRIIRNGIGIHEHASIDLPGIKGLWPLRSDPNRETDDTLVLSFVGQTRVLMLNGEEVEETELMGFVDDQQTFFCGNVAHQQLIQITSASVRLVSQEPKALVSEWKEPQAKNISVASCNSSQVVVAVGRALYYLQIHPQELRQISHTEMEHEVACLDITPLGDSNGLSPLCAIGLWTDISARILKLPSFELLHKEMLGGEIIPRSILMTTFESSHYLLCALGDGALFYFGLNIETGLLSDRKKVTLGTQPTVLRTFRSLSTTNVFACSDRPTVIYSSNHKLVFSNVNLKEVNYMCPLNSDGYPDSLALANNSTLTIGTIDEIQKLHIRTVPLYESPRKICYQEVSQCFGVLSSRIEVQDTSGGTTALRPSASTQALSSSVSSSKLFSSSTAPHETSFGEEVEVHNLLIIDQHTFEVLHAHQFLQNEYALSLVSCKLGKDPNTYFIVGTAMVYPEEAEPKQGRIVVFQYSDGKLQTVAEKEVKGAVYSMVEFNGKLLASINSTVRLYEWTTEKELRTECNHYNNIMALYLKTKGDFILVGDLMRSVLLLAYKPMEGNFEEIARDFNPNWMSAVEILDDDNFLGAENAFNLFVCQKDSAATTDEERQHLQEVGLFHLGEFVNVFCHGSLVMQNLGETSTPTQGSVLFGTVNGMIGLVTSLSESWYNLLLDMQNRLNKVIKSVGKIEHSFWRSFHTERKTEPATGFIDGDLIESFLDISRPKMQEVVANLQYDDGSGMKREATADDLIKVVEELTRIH
Put plainly: In Cell Western of IKZF1 protein expression level in MM.1S cells. As to conditions: IKZF1, MM.1S cells, 24 hours; for Dmax: MM1.S, read-out: Maximum degradation rate Dmax. Type of assay: cell-based. The procedure: Experimental objective: The experiment aims to assess the degradation effect of the test compounds on IKZF1 and 1KZF3 proteins in MM.1S cells by evaluating the impact of the test compounds on the expression levels of IKZF1 and IZKZF3 proteins in MM.1S cells.
• Cell lines: MMN.1 S cell (sourced from ATCC; Cat. No CRL-2974) • Negative control: 0.100 DMSO.
• 1) Log phase MM.1 S cells were plated in a 96-well plate at 1.2×10^5 cells per well and cultured overnight; • 2) The next day, compounds were added with a starting concentration of 300 nM, diluted threefold across three replicate wells for 10 concentration gradients (including DMSO), and the cells were incubated for 24 hours in an incubator; • 3) The cells were centrifuged, and the supernatant was carefully removed. 150 μL of 4% paraformaldehyde fixative was added along the wall of the wells, avoiding contact with the bottom cells, and the cells were incubated at room temperature for 20 minutes; • 4) Lysis buffer was prepared by mixing 0.5 mL of 10% Triton X-100 with 49.5 mL of PBS until homogenous; • 5) 200 μL of lysis buffer was added along the well walls, again avoiding the bottom cells, and incubated on a shaker at room temperature for 5 minutes; • 6) The wells were washed four times; • 7) 150 μL of Licor […] Blocking Buffer was added along the well walls, avoiding the bottom cells, and the cells were incubated on a shaker at room temperature for 1.5 hours; • 8) Ikaros (D6N9Y) Rabbit mAb, Aiolos (D1C1E) Rabbit mAb and GAPDH mouse mAb (proteintech, 60004-1-Ig) were diluted at a 1:100 ratio using antibody dilution buffer; • 9) 50 μL of mixed antibody was added to each well with three replicate wells, and the cells were incubated overnight on a shaker at 4° C.; • 10) PBST (PBS with 0.1% Tween 20) was prepared; • 11) The primary antibodies were removed, and 200 μL of PBST was added along the well walls, avoiding the bottom cells, and the cells were incubated on a shaker at room temperature for 5 minutes; • 12) The wells were washed four times; • 13) Secondary antibody dilution buffer was prepared by adding Tween 20 to Licor […] Blocking Buffer to a final concentration of 0.2%; • 14) Fluorescent secondary antibodies were diluted in the dark at a 1:800 ratio. To 400 μL of secondary antibody dilution solution, 0.5 μL of each IRDye 800CW and IRDye 680CW (corresponding to the primary antibodies) was added. • 15) 50 μL of the diluted fluorescent secondary antibodies was added to each well and the cells were incubated on a shaker at room temperature in the dark for 60 minutes; • 16) The secondary antibodies were removed, and 200 μL of PBST was added along the well walls, avoiding the bottom cells, and the cells were incubated on a shaker at room temperature in the dark for 5 minutes; • 17) The wells were washed four times; immediately after washing, the Odyssey Gel Imaging System was used for detection at dual wavelengths of 700 nm and 800 nm.
Using GraphPad Prism 6 software, inhibition rate data was entered to fit the curve and calculate the DC50 value.

`CN(CCCOCCCc1ccc2occ(C3CCC(=O)NC3=O)c2c1)C[C@H]1CC[C@H](n2cc(NC(=O)c3coc(-c4ccnc(NCC5CC5)c4)n3)c(C(F)F)n2)CC1` (stereo partly shown) [Hydrochloride of WX004] came in with an IC50 in the assay with SU-DHL-2 (Homo sapiens, 96 h) of 64.5 nM. The molecule also returned a Maximum inhibition rate in the assay on SU-DHL-2 of 99.05%.

`CN(CCCOCCCc1ccc2c(ccc3occ(C4CCC(=O)NC4=O)c32)c1)C[C@H]1CC[C@H](n2cc(NC(=O)c3coc(-c4ccnc(NCC5CC5)c4)n3)c(C(F)F)n2)CC1` (stereo partly shown) [Hydrochloride of WX008]: at IRAK4, the DC50 came to 122 nM and the Dmax stood at 82.2%. Further, at IKZF1, the DC50 was 4.66 nM and the Dmax stood at 81.4%.

As for `CN(CCCOCCCc1ccc2c(ccc3onc(C4CCC(=O)NC4=O)c32)c1)C[C@H]1CC[C@H](n2cc(NC(=O)c3coc(-c4ccnc(NCC5CC5)c4)n3)c(C(F)F)n2)CC1` (stereo partly shown) [Hydrochloride of WX016], on IRAK4, the DC50 was determined as 70.7 nM and the Dmax was found to be 93.1%. In addition, at IKZF1, the DC50 was determined as 6.02 nM and the Dmax worked out at 81.6%.
